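Results reflect a 48-hour exposure of cells in 96-well plates to compound at five concentrations. At the GI50, growth is halved. TGI: concentration producing complete growth inhibition.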
Experiments:
Assay in all cases: DTP human tumour cell line panel, 48 h
[1] = test system: CCRF-CEM leukemia
[2] = test system: K-562 leukemia
[3] = test system: MDA-MB-231 breast
[4] = test system: MOLT-4 leukemia
[5] = test system: NCI-H522 lung
[6] = test system: PC-3 prostate
[7] = test system: RXF 393 renal
[8] = test system: SF-268 CNS
[9] = test system: SNB-19 CNS
[10] = test system: UACC-62 melanoma

SMILES	GI50 [1]	TGI [1]	GI50 [2]	TGI [2]	GI50 [3]	TGI [3]	GI50 [4]	TGI [4]	GI50 [5]	TGI [5]	GI50 [6]	TGI [6]	GI50 [7]	TGI [7]	GI50 [8]	TGI [8]	GI50 [9]	TGI [9]	GI50 [10]	TGI [10]
O=c1[nH]nc(-c2ccccc2)c2c(-c3ccccc3)onc12	3.69 µM	> 100 µM	0.385 µM	> 100 µM	17.7 µM	> 100 µM	0.564 µM	> 65.3 µM	0.648 µM	24.3 µM	2.12 µM	> 100 µM	1.19 µM	> 37.9 µM	0.969 µM	> 77.8 µM	11.2 µM	> 100 µM	0.43 µM	> 100 µM
O=[N+]([O-])c1cc2c(ccc3occc32)o1	1.87 µM	7.88 µM	2.14 µM	8.03 µM	1.84 µM	5.83 µM	2.31 µM	28.6 µM	1.67 µM	4.45 µM	10.2 µM	38.4 µM	1.49 µM	3.17 µM	2.21 µM	12.8 µM	3.78 µM	45.9 µM	1.45 µM	3.41 µM
CC(=O)n1c(-c2ccc(Cl)c(Cl)c2)cn(-c2ccc(Cl)cc2)c1=O	16.8 µM	38 µM	24.1 µM	80.5 µM	17.6 µM	62.6 µM	23.3 µM	90.2 µM	19.3 µM	53.6 µM	26.6 µM	> 100 µM	11.4 µM	27 µM	23.5 µM	> 100 µM	13.4 µM	40.7 µM	19.8 µM	55.8 µM
CC1=NN(C(=O)c2nn(-c3ccc(Cl)cc3)cc2O)C(=O)C1	0.608 µM	> 22 µM	0.501 µM	> 100 µM	2.75 µM	> 100 µM	1.24 µM	> 100 µM	1.44 µM	> 86.5 µM	0.348 µM	> 100 µM	2.18 µM	> 76.6 µM	0.632 µM	> 100 µM	3.16 µM	> 100 µM	2.28 µM	> 80.8 µM
CN(C)c1ncnc2c1ccn2C1OC(CO)C(O)C1O (centres undefined)	0.234 µM	1.76 µM	1.4 µM	> 100 µM	1.82 µM	5.96 µM	0.278 µM	1.95 µM	> 100 µM	> 100 µM	0.477 µM	11.5 µM	18.1 µM	> 100 µM	3.63 µM	> 100 µM	44.5 µM	> 100 µM	> 100 µM	> 100 µM
CC(C)=CCc1cc(C2COc3cc4c(c(O)c3C2=O)C=CC(C)(C)O4)c(O)cc1O (centres undefined)		28.7 µM		10.7 µM		27.5 µM		20.7 µM		25.9 µM		24.9 µM		20.6 µM		30.5 µM		40.7 µM		32.9 µM
O=C(Cn1c2ccccc2c2ccncc21)N/N=C\c1ccc2ccccc2c1	45.1 µM	> 100 µM	24.7 µM	> 100 µM	14.5 µM	32.9 µM	16.7 µM	> 100 µM	19.6 µM	51.5 µM	19 µM	> 100 µM	19 µM	54.4 µM	18.7 µM	91.6 µM	17.7 µM	42.4 µM	18 µM	42.9 µM
COc1cc2nncc(SCc3ccc(Cl)c(Cl)c3)c2cc1OC		> 100 µM		> 100 µM		> 100 µM		> 100 µM		> 100 µM		> 100 µM		> 100 µM		> 100 µM		> 100 µM		> 100 µM
CN(CCCN(C)CCC1CCCCC1)CCC1CCCCC1	3.03 µM	21.7 µM	1.97 µM	7.02 µM	1.38 µM	4.68 µM	2.4 µM	7.3 µM	1.77 µM	4.36 µM	2.62 µM	15.4 µM	0.946 µM	3.54 µM	5.14 µM	18.9 µM	3.76 µM	9.98 µM	0.888 µM	2.39 µM
O=C1c2ccn(CCCCN(CCO)CCO)c2C(=O)c2c1c(O)c1ccccc1c2O	2.07 µM	11.2 µM	4.41 µM	> 100 µM	1.89 µM	3.97 µM	2.55 µM		9.29 µM	> 92.7 µM	3.05 µM	> 20.7 µM	5.19 µM	> 58.6 µM	13.7 µM	> 63.2 µM	20.2 µM	> 100 µM	1.09 µM	2.77 µM
Cc1ccc(-c2c3c(N)c4c(nc3nc3c2c(C)nn3-c2ccccc2)CCC4)cc1	2.54 µM	7.2 µM	2.42 µM	6.56 µM	1.85 µM	3.98 µM	2.81 µM	7.94 µM	18.2 µM	40.3 µM	5.07 µM	20.9 µM	1.58 µM	3.25 µM	3.26 µM	11 µM	3.85 µM	18 µM	18.6 µM	35.7 µM
CCc1c2c(nc3ccc(OCc4ccc(B5OC(C)(C)C(C)(C)O5)cc4)cc13)-c1cc3c(c(=O)n1C2)COC(=O)[C@]3(O)CC	< 0.01 µM	> 100 µM	0.0562 µM	> 100 µM	1.1 µM	> 100 µM	< 0.01 µM	> 100 µM	0.0204 µM	> 100 µM	0.146 µM	> 100 µM	0.027 µM	0.185 µM	< 0.01 µM	> 100 µM	< 0.01 µM	> 100 µM	< 0.01 µM	0.186 µM
Cc1cc(Cl)ccc1Nc1nc(C(F)(F)F)ccc1C(=O)Nc1cccc(C(F)(F)F)c1	3.41 µM	14.7 µM	2.59 µM	11.2 µM	2.03 µM	8.15 µM	3.04 µM	13.3 µM	3.47 µM	13.4 µM	3.63 µM	15.5 µM	3.58 µM	27.5 µM	4.22 µM	16.6 µM	4.45 µM	15.8 µM	4 µM	14.4 µM
